Here are results for 9 compounds from ChEMBL document CHEMBL3822442, “Synthesis and Pharmacological Characterization of Novel Glucagon-like Peptide-2 (GLP-2) Analogues with Low Systemic Clearance” (J Med Chem, 2016).

In general, EC50 refers to the midpoint of the concentration-response curve. Lower therefore signals higher potency in that assay.

Holding throughout (type): cell-based
For one test, the system named is HEK293. The test can be described thus: Selectivity ratio of EC50 for human GLP1R expressed in HEK293 cells to EC50 for human GLP2R expressed in HEK293.
Test [1] addresses Glucagon-like peptide 1 receptor (Homo sapiens, UniProt P43220). Nature of the test: Agonist activity at human GLP1R expressed in HEK293 cells after 5 hrs by luciferase reporter gene assay. A general note: In a reporter assay the amount or activity of a reporter protein is the signal.
In test [2] the target is T1, Glucagon-like peptide 2 receptor (Homo sapiens, UniProt O95838).
T1 sequence (O95838 whole entry): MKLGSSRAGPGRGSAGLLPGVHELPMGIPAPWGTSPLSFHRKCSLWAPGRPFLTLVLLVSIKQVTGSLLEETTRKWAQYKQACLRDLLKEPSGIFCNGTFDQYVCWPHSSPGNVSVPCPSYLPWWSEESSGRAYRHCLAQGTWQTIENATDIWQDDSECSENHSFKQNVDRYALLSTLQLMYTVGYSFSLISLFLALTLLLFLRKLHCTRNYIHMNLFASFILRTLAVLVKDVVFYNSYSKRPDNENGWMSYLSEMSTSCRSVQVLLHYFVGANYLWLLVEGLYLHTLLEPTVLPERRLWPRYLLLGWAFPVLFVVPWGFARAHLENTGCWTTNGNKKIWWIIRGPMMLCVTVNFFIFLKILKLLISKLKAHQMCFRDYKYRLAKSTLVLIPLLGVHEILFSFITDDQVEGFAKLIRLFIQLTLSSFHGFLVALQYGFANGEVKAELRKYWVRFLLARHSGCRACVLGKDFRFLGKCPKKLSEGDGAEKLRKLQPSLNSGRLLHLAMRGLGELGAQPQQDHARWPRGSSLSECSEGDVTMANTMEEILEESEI
Nature of the test: Agonist activity at human GLP2R expressed in HEK293 cells after 5 hrs by luciferase reporter gene assay.

Glucagon-like peptide 1 receptor, sequence (P43220 whole entry): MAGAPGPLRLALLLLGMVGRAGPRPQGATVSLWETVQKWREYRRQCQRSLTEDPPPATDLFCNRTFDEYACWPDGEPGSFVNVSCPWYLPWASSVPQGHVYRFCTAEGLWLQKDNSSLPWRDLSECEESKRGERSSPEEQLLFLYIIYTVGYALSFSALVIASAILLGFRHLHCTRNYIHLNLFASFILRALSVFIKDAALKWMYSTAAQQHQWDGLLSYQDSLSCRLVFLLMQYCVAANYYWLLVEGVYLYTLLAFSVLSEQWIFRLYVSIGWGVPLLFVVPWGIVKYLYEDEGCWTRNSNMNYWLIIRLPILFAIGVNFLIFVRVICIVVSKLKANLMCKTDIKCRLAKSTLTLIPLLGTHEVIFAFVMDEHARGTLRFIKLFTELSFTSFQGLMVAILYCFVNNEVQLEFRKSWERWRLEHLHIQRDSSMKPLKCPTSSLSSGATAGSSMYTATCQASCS

With `CCCCC(NC(=O)[C@H](CCC(=O)O)NC(=O)[C@H](CC(=O)O)NC(=O)[C@H](CO)NC(=O)[C@H](Cc1ccccc1)NC(=O)[C@H](CO)NC(=O)CNC(=O)[C@H](CC(=O)O)NC(=O)CNC(=O)[C@@H](N)Cc1cnc[nH]1)C(=O)N[C@H](Cc1ccccc1)C(=O)N[C@H](C(=O)N[C@H](C(=O)N[C@@H](CC(C)C)C(=O)N[C@@H](CC(=O)O)C(=O)N[C@@H](CC(C)C)C(=O)N[C@@H](CC(C)C)C(=O)N[C@@H](C)C(=O)N[C@@H](C)C(=O)N[C@@H](CCCNC(=N)N)C(=O)N[C@@H](CC(=O)O)C(=O)N[C@@H](Cc1ccccc1)C(=O)N[C@H](C(=O)N[C@@H](CC(N)=O)C(=O)N[C@@H](Cc1c[nH]c2ccccc12)C(=O)N[C@@H](CC(C)C)C(=O)N[C@H](C(=O)N[C@@H](CCC(N)=O)C(=O)N[C@H](C(=O)N[C@@H](CCCCN)C(=O)N[C@H](C(=O)N[C@H](C(=O)N[C@@H](CC(=O)O)C(N)=O)[C@@H](C)O)[C@@H](C)CC)[C@@H](C)O)[C@@H](C)CC)[C@@H](C)CC)[C@@H](C)CC)[C@@H](C)O` (some centres not stated), the Ratio EC50 with HEK293 was greater than 33000.
`CCCCC(NC(=O)[C@H](CCC(=O)O)NC(=O)[C@H](CC(=O)O)NC(=O)[C@H](CO)NC(=O)[C@H](Cc1ccccc1)NC(=O)[C@H](CO)NC(=O)CNC(=O)[C@H](CC(=O)O)NC(=O)CNC(=O)[C@@H](N)Cc1cnc[nH]1)C(=O)N[C@H](Cc1ccccc1)C(=O)N[C@H](C(=O)N[C@H](C(=O)N[C@@H](CC(C)C)C(=O)N[C@@H](CC(=O)O)C(=O)N[C@@H](CC(C)C)C(=O)N[C@@H](CC(C)C)C(=O)N[C@@H](C)C(=O)N[C@@H](C)C(=O)N[C@@H](CCCNC(=N)N)C(=O)N[C@@H](CC(=O)O)C(=O)N[C@@H](Cc1ccccc1)C(=O)N[C@H](C(=O)N[C@@H](CC(N)=O)C(=O)N[C@@H](Cc1c[nH]c2ccccc12)C(=O)N[C@@H](CC(C)C)C(=O)N[C@H](C(=O)N[C@@H](CCC(N)=O)C(=O)N[C@H](C(=O)N[C@@H](CCCCN)C(=O)N[C@H](C(=O)N[C@H](C(=O)N[C@@H](CC(=O)O)C(=O)O)[C@@H](C)O)[C@@H](C)CC)[C@@H](C)O)[C@@H](C)CC)[C@@H](C)CC)[C@@H](C)CC)[C@@H](C)O` (some centres not stated): in the test with HEK293, the Ratio EC50 is greater than 33000.
As for `CCCCC(NC(=O)[C@H](CCC(=O)O)NC(=O)[C@H](CC(=O)O)NC(=O)[C@H](CO)NC(=O)[C@H](Cc1ccccc1)NC(=O)[C@H](CO)NC(=O)CNC(=O)[C@H](CC(=O)O)NC(=O)CNC(=O)[C@@H](N)Cc1cnc[nH]1)C(=O)N[C@H](Cc1ccccc1)C(=O)N[C@H](C(=O)N[C@H](C(=O)N[C@@H](CC(C)C)C(=O)N[C@@H](CC(=O)O)C(=O)N[C@@H](CC(C)C)C(=O)N[C@@H](CC(C)C)C(=O)N[C@@H](C)C(=O)N[C@@H](C)C(=O)N[C@@H](CCCNC(=N)N)C(=O)N[C@@H](CC(=O)O)C(=O)N[C@@H](Cc1ccccc1)C(=O)N[C@H](C(=O)N[C@@H](CC(N)=O)C(=O)N[C@@H](Cc1c[nH]c2ccccc12)C(=O)N[C@@H](CC(C)C)C(=O)N[C@H](C(=O)N[C@@H](CCC(N)=O)C(=O)N[C@H](C(=O)N[C@@H](CCCCN)C(=O)N[C@H](C(=O)N[C@H](C(=O)N[C@@H](CC(=O)O)C(=O)NCC)[C@@H](C)O)[C@@H](C)CC)[C@@H](C)O)[C@@H](C)CC)[C@@H](C)CC)[C@@H](C)CC)[C@@H](C)O` (some centres not stated), in the test on HEK293, the Ratio EC50 was greater than 20000.
In the case of `CCCC[C@H](NC(=O)[C@H](CCC(=O)O)NC(=O)[C@H](CC(=O)O)NC(=O)[C@H](CO)NC(=O)[C@H](Cc1ccccc1)NC(=O)[C@H](CO)NC(=O)CNC(=O)[C@H](CC(=O)O)NC(=O)CNC(=O)[C@@H](N)Cc1cnc[nH]1)C(=O)N[C@H](Cc1ccc(Cl)cc1)C(=O)N[C@H](C(=O)N[C@H](C(=O)N[C@@H](CC(C)C)C(=O)N[C@@H](CC(=O)O)C(=O)N[C@@H](CC(N)=O)C(=O)N[C@@H](CC(C)C)C(=O)N[C@@H](C)C(=O)N[C@@H](C)C(=O)N[C@@H](CCCNC(=N)N)C(=O)N[C@@H](CC(=O)O)C(=O)N[C@@H](Cc1ccccc1)C(=O)N[C@H](C(=O)N[C@@H](CC(N)=O)C(=O)N[C@@H](Cc1c[nH]c2ccccc12)C(=O)N[C@@H](CC(C)C)C(=O)N[C@H](C(=O)N[C@@H](CCC(N)=O)C(=O)N[C@H](C(=O)N[C@@H](CCCCN)C(N)=O)[C@@H](C)O)[C@@H](C)CC)[C@@H](C)CC)[C@@H](C)CC)[C@@H](C)O`, the EC50 in test [1] came out at 60 nM; in test [2], 0.09 nM.
As for `CCCCC(NC(=O)[C@H](CCC(=O)O)NC(=O)[C@H](CC(=O)O)NC(=O)[C@H](CO)NC(=O)[C@H](Cc1ccccc1)NC(=O)[C@H](CO)NC(=O)CNC(=O)[C@H](CC(=O)O)NC(=O)CNC(=O)[C@@H](N)Cc1cnc[nH]1)C(=O)N[C@H](Cc1ccccc1)C(=O)N[C@H](C(=O)N[C@H](C(=O)N[C@@H](CC(C)C)C(=O)N[C@@H](CC(=O)O)C(=O)N[C@@H](CC(C)C)C(=O)N[C@@H](CC(C)C)C(=O)N[C@@H](C)C(=O)N[C@@H](C)C(=O)N[C@@H](CCCNC(=N)N)C(=O)N[C@@H](CC(=O)O)C(=O)N[C@@H](Cc1ccccc1)C(=O)N[C@H](C(=O)N[C@@H](CC(N)=O)C(=O)N[C@@H](Cc1c[nH]c2ccccc12)C(=O)N[C@@H](CC(C)C)C(=O)N[C@H](C(=O)N[C@@H](CCC(N)=O)C(=O)N[C@H](C(=O)N[C@@H](CCCCN)C(N)=O)[C@@H](C)O)[C@@H](C)CC)[C@@H](C)CC)[C@@H](C)CC)[C@@H](C)O` (some centres not stated), in the test on HEK293, the Ratio EC50 was greater than 12000.
With `CCCC[C@H](NC(=O)[C@H](CCC(=O)O)NC(=O)[C@H](CC(=O)O)NC(=O)[C@H](CO)NC(=O)[C@H](Cc1ccccc1)NC(=O)[C@H](CO)NC(=O)CNC(=O)[C@H](CC(=O)O)NC(=O)CNC(=O)[C@@H](N)Cc1c[nH]cn1)C(=O)N[C@@H](CC(N)=O)C(=O)N[C@H](C(=O)N[C@H](C(=O)N[C@@H](CC(C)C)C(=O)N[C@@H](CC(=O)O)C(=O)N[C@@H](Cc1ccc(N)cc1)C(=O)N[C@@H](CC(C)C)C(=O)N[C@@H](C)C(=O)N[C@@H](C)C(=O)N[C@@H](CCCNC(=N)N)C(=O)N[C@@H](CC(=O)O)C(=O)N[C@@H](Cc1ccccc1)C(=O)N[C@H](C(=O)N[C@@H](CC(N)=O)C(=O)N[C@@H](Cc1c[nH]c2ccccc12)C(=O)N[C@@H](CC(C)C)C(=O)N[C@H](C(=O)N[C@@H](CCC(N)=O)C(=O)N[C@H](C(=O)N[C@@H](CCCCN)C(N)=O)[C@@H](C)O)[C@@H](C)CC)[C@@H](C)CC)[C@@H](C)CC)[C@@H](C)O`, the EC50 in test [1] is greater than 1000 nM; in test [2], 0.13 nM.
For `CCCCC(NC(=O)[C@H](CCC(=O)O)NC(=O)[C@H](CC(=O)O)NC(=O)[C@H](CO)NC(=O)[C@H](Cc1ccccc1)NC(=O)[C@H](CO)NC(=O)CNC(=O)[C@H](CC(=O)O)NC(=O)CNC(=O)[C@@H](N)Cc1cnc[nH]1)C(=O)N[C@H](Cc1ccccc1)C(=O)N[C@H](C(=O)N[C@H](C(=O)N[C@@H](CC(C)C)C(=O)N[C@@H](CC(=O)O)C(=O)N[C@@H](CC(C)C)C(=O)N[C@@H](CC(C)C)C(=O)N[C@@H](C)C(=O)N[C@@H](C)C(=O)N[C@@H](CCCNC(=N)N)C(=O)N[C@@H](CC(=O)O)C(=O)N[C@@H](Cc1ccccc1)C(=O)N[C@H](C(=O)N[C@@H](CC(N)=O)C(=O)N[C@@H](Cc1c[nH]c2ccccc12)C(=O)N[C@@H](CC(C)C)C(=O)N[C@H](C(=O)N[C@@H](CCC(N)=O)C(=O)N[C@H](C(=O)N[C@@H](CCCCN)C(=O)N[C@H](C(=O)N[C@H](C(=O)N[C@@H](CC(=O)O)C(=O)NCCOCCOCCOCCOCCC(N)=O)[C@@H](C)O)[C@@H](C)CC)[C@@H](C)O)[C@@H](C)CC)[C@@H](C)CC)[C@@H](C)CC)[C@@H](C)O` (some centres not stated), the Ratio EC50 with HEK293 is greater than 33000.
Regarding `CCCC[C@H](NC(=O)[C@H](CCC(=O)O)NC(=O)[C@H](CC(=O)O)NC(=O)[C@H](CO)NC(=O)[C@H](Cc1ccccc1)NC(=O)[C@H](CO)NC(=O)CNC(=O)[C@H](CC(=O)O)NC(=O)CNC(=O)[C@@H](N)Cc1cnc[nH]1)C(=O)N[C@@H](CC(N)=O)C(=O)N[C@H](C(=O)N[C@H](C(=O)N[C@@H](CC(C)C)C(=O)N[C@@H](CC(=O)O)C(=O)N[C@@H](Cc1cccc2ccccc12)C(=O)N[C@@H](CC(C)C)C(=O)N[C@@H](C)C(=O)N[C@@H](C)C(=O)N[C@@H](CCCNC(=N)N)C(=O)N[C@@H](CC(=O)O)C(=O)N[C@@H](Cc1ccccc1)C(=O)N[C@H](C(=O)N[C@@H](CC(N)=O)C(=O)N[C@@H](Cc1c[nH]c2ccccc12)C(=O)N[C@@H](CC(C)C)C(=O)N[C@H](C(=O)N[C@@H](CCC(N)=O)C(=O)N[C@H](C(=O)N[C@@H](CCCCN)C(N)=O)[C@@H](C)O)[C@@H](C)CC)[C@@H](C)CC)[C@@H](C)CC)[C@@H](C)O`, the values for the EC50 in test [1] and in test [2] were greater than 1000 nM and 0.19 nM, respectively.
As for `CCCCC(NC(=O)[C@H](CCC(=O)O)NC(=O)[C@H](CC(=O)O)NC(=O)[C@H](CO)NC(=O)[C@H](Cc1ccccc1)NC(=O)[C@H](CO)NC(=O)CNC(=O)[C@H](CC(=O)O)NC(=O)CNC(=O)[C@@H](N)Cc1cnc[nH]1)C(=O)N[C@H](Cc1cccs1)C(=O)N[C@H](C(=O)N[C@H](C(=O)N[C@@H](CC(C)C)C(=O)N[C@@H](CC(=O)O)C(=O)N[C@@H](Cc1ccccc1)C(=O)N[C@@H](CC(C)C)C(=O)N[C@@H](C)C(=O)N[C@@H](C)C(=O)N[C@@H](CCCNC(=N)N)C(=O)N[C@@H](CC(=O)O)C(=O)N[C@@H](Cc1ccccc1)C(=O)N[C@H](C(=O)N[C@@H](CC(N)=O)C(=O)N[C@@H](Cc1c[nH]c2ccccc12)C(=O)N[C@@H](CC(C)C)C(=O)N[C@H](C(=O)N[C@@H](CCC(N)=O)C(=O)N[C@H](C(=O)N[C@@H](CCCCN)C(N)=O)[C@@H](C)O)[C@@H](C)CC)[C@@H](C)CC)[C@@H](C)CC)[C@@H](C)O` (some centres not stated), in the test on HEK293, the Ratio EC50 was greater than 12000.
